Consider 34 compounds from a polymer gas permeability compilation.

Molecules are shown by their SMILES.

Take `*NCC(C)(C)CC(C)CCNC(=O)c1ccc(C(*)=O)cc1` (repeat unit): the CH4 permeability is 0.018 Barrer, the CO2 permeability is 0.33 Barrer, the N2 permeability was found to be 0.016 Barrer and the O2 permeability is 0.092 Barrer.
In turn, `*CCOC(=O)c1ccc(C(=O)O*)cc1` (repeat unit) displayed a CH4 permeability of 3 Barrer, a CO2 permeability of 0.173 Barrer, an N2 permeability of 0.013 Barrer and an O2 permeability of 0.045 Barrer.
The compound `*C(=C(*)c1ccc2c(c1)CCC2)c1ccccc1` (repeat unit) returned a CH4 permeability of 60 Barrer, a CO2 permeability of 390 Barrer, an H2 permeability of 360 Barrer and an N2 permeability of 30 Barrer. The compound further had an O2 permeability of 86 Barrer.
Compound `*c1ccc(N(c2ccc(OC)cc2)c2ccc(N3C(=O)c4ccc(C(c5ccc6c(c5)C(=O)N(*)C6=O)(C(F)(F)F)C(F)(F)F)cc4C3=O)cc2)cc1` (repeat unit) gave a CH4 permeability of 0.5 Barrer, a CO2 permeability of 16.8 Barrer, an N2 permeability of 0.89 Barrer and an O2 permeability of 4.28 Barrer.
`*c1ccc(Cc2ccc(N3C(=O)c4ccc(Oc5ccc(C(c6ccc(Oc7ccc8c(c7)C(=O)N(*)C8=O)cc6)(C(F)(F)F)C(F)(F)F)cc5)cc4C3=O)cc2)cc1` (repeat unit): the H2 permeability came to 8.31 Barrer, the N2 permeability turned out to be 0.076 Barrer and the O2 permeability stood at 0.501 Barrer.
With `*c1ccc(Oc2ccc(N3C(=O)c4cc(Oc5ccccc5)c(-c5cc6c(cc5Oc5ccccc5)C(=O)N(*)C6=O)cc4C3=O)cc2)cc1` (repeat unit), the CH4 permeability was 0.85 Barrer, the CO2 permeability amounted to 30.1 Barrer, the N2 permeability was 0.83 Barrer and the O2 permeability worked out at 3.59 Barrer.
Compound `*Oc1ccc(C2(c3ccc(Oc4ccc(S(=O)(=O)c5ccc(*)cc5)cc4)cc3)OC(=O)c3ccccc32)cc1` (repeat unit) had a CH4 permeability of 0.143 Barrer, a CO2 permeability of 5.74 Barrer, an H2 permeability of 10.1 Barrer and an N2 permeability of 0.17 Barrer. Further, the O2 permeability amounted to 1.2 Barrer.
The like results for `*c1c(C)c(C)c(N2C(=O)c3ccc(C(c4ccc5c(c4)C(=O)N(*)C5=O)(C(F)(F)F)C(F)(F)F)cc3C2=O)c(C)c1C` (repeat unit) were, in that order, 45.2 Barrer, 734 Barrer, 434 Barrer, 37.8 Barrer and 87 Barrer.
Take `*c1ccc(Oc2ccc(N3C(=O)c4ccc(Oc5ccc6c(c5)C(=O)N(*)C6=O)cc4C3=O)cc2)cc1` (repeat unit): the H2 permeability is 4.77 Barrer, the N2 permeability turned out to be 0.026 Barrer and the O2 permeability turned out to be 0.183 Barrer.
In the case of `*Oc1ccc(C2(c3ccc(OC(=O)c4cc(C(*)=O)cc(C(C)(C)C)c4)cc3)OC(=O)c3ccccc32)cc1` (repeat unit), the CH4 permeability turned out to be 1.16 Barrer, the CO2 permeability amounted to 23.8 Barrer, the H2 permeability was determined as 41.3 Barrer and the N2 permeability amounted to 1.06 Barrer. Further, the O2 permeability came to 5.6 Barrer.
Compound `*c1ccc(-c2ccc(Oc3ccc(C4(c5ccc(Oc6ccc(-c7ccc(N8C(=O)c9ccc(Oc%10ccc(C(C)(C)c%11ccc(Oc%12ccc%13c(c%12)C(=O)N(*)C%13=O)cc%11)cc%10)cc9C8=O)cc7)cc6C(F)(F)F)cc5)c5ccccc5C(=O)N4c4ccccc4)cc3)c(C(F)(F)F)c2)cc1` (repeat unit) gave a CH4 permeability of 0.84 Barrer, a CO2 permeability of 16.6 Barrer, an N2 permeability of 0.95 Barrer and an O2 permeability of 4.25 Barrer.
In turn, `*Oc1ccc(C(C)(C)c2ccc(Oc3c(F)c(F)c(COC(C4CCCC(C(OCc5c(F)c(F)c(*)c(F)c5F)(C(F)(F)F)C(F)(F)F)C4)(C(F)(F)F)C(F)(F)F)c(F)c3F)cc2)cc1` (repeat unit) came in with a CH4 permeability of 0.32 Barrer, a CO2 permeability of 6.4 Barrer, an H2 permeability of 17 Barrer and an N2 permeability of 0.48 Barrer. In addition, the O2 permeability was 2.1 Barrer.
The corresponding values for `*c1ccc2c(-c3c(O)ccc4cc(N5C(=O)c6ccc(C(=O)c7ccc8c(c7)C(=O)N(*)C8=O)cc6C5=O)ccc34)c(O)ccc2c1` (repeat unit) are 0.06 Barrer, 3.21 Barrer, 4.52 Barrer, 0.11 Barrer and 0.76 Barrer.
The like results for `*Oc1c(C)cc(C(C)(C)c2cc(C)c(OC(=O)c3cc(C(*)=O)cc(C(C)(C)C)c3)c(C)c2)cc1C` (repeat unit) were, in that order, 2.72 Barrer, 45.3 Barrer, 96 Barrer, 2.6 Barrer and 12.7 Barrer.
For `*c1ccc(N2C(=O)c3ccc(C(c4ccc5c(c4)C(=O)N(*)C5=O)(C(F)(F)F)C(F)(F)F)cc3C2=O)cc1` (repeat unit), the CH4 permeability was determined as 1.31 Barrer, the CO2 permeability stood at 62 Barrer, the H2 permeability worked out at 107 Barrer and the N2 permeability is 2.57 Barrer. Also, the O2 permeability came to 12.7 Barrer.
Turning to `*Oc1ccc2nc(-c3ccccc3)c(-c3ccc(-c4nc5cc(*)ccc5nc4-c4ccccc4)cc3)nc2c1` (repeat unit), the H2 permeability came out at 17.2 Barrer.
Take `*c1ccc(Oc2ccc(C(c3ccc(Oc4ccc(N5C(=O)c6ccc(-c7ccc8c(c7)C(=O)N(*)C8=O)cc6C5=O)cc4)cc3)(C(F)(F)F)C(F)(F)F)cc2)cc1` (repeat unit): the CH4 permeability came out at 0.18 Barrer, the CO2 permeability was 6.14 Barrer, the H2 permeability came to 17.3 Barrer and the N2 permeability stood at 0.275 Barrer. Further, the O2 permeability came to 1.6 Barrer.
As for `*OC(=O)c1ccc(C(=O)Oc2ccc(C(C)(C)c3ccc(O*)c(C)c3)cc2C)cc1` (repeat unit), the CH4 permeability turned out to be 0.17 Barrer, the CO2 permeability was found to be 5.8 Barrer, the N2 permeability came out at 0.23 Barrer and the O2 permeability is 1.12 Barrer.
For `*Cc1cc(Cl)c(C*)cc1Cl` (repeat unit), the CO2 permeability stood at 0.783 Barrer, the N2 permeability worked out at 0.0271 Barrer and the O2 permeability stood at 0.181 Barrer.
Consider `*CCOC(=O)c1ccc2cc(C(=O)O*)ccc2c1` (repeat unit), for which the CO2 permeability was 0.131 Barrer and the O2 permeability stood at 0.0132 Barrer.
Compound `*C(=C(*)c1ccc([Si](C)(C)CCCCCCCC)cc1)c1ccc(CCCC)cc1` (repeat unit) came in with a CO2 permeability of 110 Barrer, an N2 permeability of 7.9 Barrer and an O2 permeability of 25 Barrer.
`*C(=C(*)c1ccc(O[Si](C)(C)C(C)(C)C)cc1)c1ccc(F)cc1` (repeat unit) had a CH4 permeability of 140 Barrer, a CO2 permeability of 800 Barrer, an H2 permeability of 315 Barrer and an N2 permeability of 55 Barrer. In addition, the O2 permeability amounted to 140 Barrer.
As to `*c1ccc(Oc2ccc(C(c3ccc(Oc4ccc(N5C(=O)c6ccc(C(=O)c7ccc8c(c7)C(=O)N(*)C8=O)cc6C5=O)cc4C(F)(F)F)cc3)(C(F)(F)F)C(F)(F)F)cc2)c(C(F)(F)F)c1` (repeat unit), the CH4 permeability was determined as 0.189 Barrer, the CO2 permeability stood at 8.04 Barrer, the H2 permeability turned out to be 24.6 Barrer and the N2 permeability was determined as 0.37 Barrer. Moreover, the O2 permeability amounted to 2.44 Barrer.
As for `*CC(*)(C)C(=O)OCC` (repeat unit), the CH4 permeability came out at 0.347 Barrer, the CO2 permeability came to 6.03 Barrer, the H2 permeability worked out at 21.8 Barrer and the N2 permeability came out at 0.276 Barrer. The same compound registered an O2 permeability of 1.52 Barrer.
In the case of `*O[Si](C)(C)CC[Si](*)(C)C` (repeat unit), the CH4 permeability was determined as 597 Barrer, the CO2 permeability was found to be 1880 Barrer and the O2 permeability came to 394 Barrer.
On to `*OC1OC(OC(C)=O)C(*)C(OC(C)=O)C1OC(C)=O` (repeat unit), for which the CH4 permeability worked out at 0.2 Barrer, the CO2 permeability is 6.56 Barrer, the H2 permeability amounted to 15.5 Barrer and the N2 permeability was determined as 0.23 Barrer. Besides, the O2 permeability came to 1.46 Barrer.
The compound `*c1ccc(C(C)(C)c2ccc(N3C(=O)c4ccc(Oc5ccc(Oc6ccc7c(c6)C(=O)N(*)C7=O)cc5)cc4C3=O)cc2)cc1` (repeat unit) returned a CH4 permeability of 0.0692 Barrer, a CO2 permeability of 2.65 Barrer, an H2 permeability of 9.33 Barrer and an N2 permeability of 0.104 Barrer. The same compound gave an O2 permeability of 0.586 Barrer.
Compound `*C(=C(*)c1ccc([Si](C)(C)C)cc1)c1ccc(O[Si](C)(C)C(C)(C)C)cc1` (repeat unit) gave a CH4 permeability of 1100 Barrer, a CO2 permeability of 3800 Barrer, an H2 permeability of 1500 Barrer and an N2 permeability of 390 Barrer. In addition, the O2 permeability came out at 830 Barrer.
The corresponding values for `*C(=C(*)c1ccc2c(c1)C(C)(C)CC2(C)C)c1ccc(Cl)cc1` (repeat unit) are 22700 Barrer, 35200 Barrer, 20600 Barrer, 9200 Barrer and 11700 Barrer.
The compound `*Nc1ccc(*)cc1OC` (repeat unit) had a CO2 permeability of 1.06 Barrer, an H2 permeability of 6.04 Barrer, an N2 permeability of 0.047 Barrer and an O2 permeability of 0.202 Barrer.
Compound `*c1ccc2c(c1)C(=O)n1c-2nc2ccc(Oc3ccc4c(c3)nc3n4C(=O)c4ccc(*)cc4-3)cc21` (repeat unit) displayed an H2 permeability of 6.56 Barrer, an N2 permeability of 0.023 Barrer and an O2 permeability of 0.24 Barrer.
`*OC(=O)Oc1ccc(C2(c3ccc(*)cc3)CC3CCC2C3)cc1` (repeat unit) gave a CH4 permeability of 0.48 Barrer, a CO2 permeability of 9.1 Barrer, an H2 permeability of 22 Barrer and an N2 permeability of 0.47 Barrer. The compound also displayed an O2 permeability of 2.4 Barrer.
With `*c1ccc(Sc2ccc(Sc3ccc(Sc4ccc(Sc5ccc(N6C(=O)c7ccc(C(c8ccc9c(c8)C(=O)N(*)C9=O)(C(F)(F)F)C(F)(F)F)cc7C6=O)cc5)cc4)cc3)cc2)cc1` (repeat unit), the CH4 permeability was 0.26 Barrer, the CO2 permeability was determined as 6.62 Barrer, the N2 permeability amounted to 0.29 Barrer and the O2 permeability is 1.46 Barrer.
The like results for `*Oc1c(C)cc(*)c(C(=O)c2ccccc2)c1C` (repeat unit) were, in that order, 0.95 Barrer, 14.3 Barrer, 1.59 Barrer and 6 Barrer.
